Laboratory results from patent US20120115724A1, “METHOD OF CONTROLLING UNDESIRED VEGETATION” (SYNGENTA CROP PROTECTION LLC, priority 2009, published 2012).

What was measured:
Assay type in all cases: in vivo
[1] = tested on: ABUTH Abutilon theophrasti; assay: Post-emergence crop and weed test (Example 15); conditions: 360 h, 8 g/ha, after 15 days, read-out: Percentage damage ABUTH
Experimental: (§1) Seeds of crop and representative weed species were sown in standard soil in pots. After cultivation for 14 days under controlled conditions in a glasshouse (at 22/16° C., day/night; 16 hours light; 65% humidity), the plants were sprayed. The spray solution was prepared by dissolving the technical active ingredient in acetone containing 10.56 wt % Emulsogen EL, 42.22 wt % N-methylpyrrolidone and 2.22 wt % DPG-monoethyl ether to give a 5% stock solution. This was then diluted with water containing 0.2% (v/v) of the adjuvant X-77 to give the desired treatment concentration.
(§2) The test plants were then grown on under controlled conditions in a glasshouse (at 22/16° C., day/night; 16 hours light; 65% humidity) and watered twice daily. After 15 days the test was evaluated (100 =total damage to plant; 0 =no damage to plant).

[2] = tested on: AMARE Amaranthus retroflexus; assay: Post-emergence crop and weed test (Example 15); conditions: 360 h, 8 g/ha, after 15 days, read-out: Percentage damage AMARE
Experimental: as §1, §2

CHEAL Chenopodium album [3] = assay: Post-emergence crop and weed test (Example 15); conditions: 360 h, 8 g/ha, after 15 days, read-out: Percentage damage CHEAL
Experimental: as §1, §2

[4] = tested on: EPHHL Euphorbia heterophylla; assay: Post-emergence crop and weed test (Example 15); conditions: 360 h, 8 g/ha, after 15 days, read-out: Percentage damage EPHHL
Experimental: as §1, §2

GLXMA Soybean [5] = assay: Post-emergence crop and weed test (Example 15); conditions: Glycine max, 360 h, 8 g/ha, after 15 days, read-out: Percentage damage GLXMA
Experimental: as §1, §2

IPOHE Ipomoea hederacea [6] = assay: Post-emergence crop and weed test (Example 15); conditions: 360 h, 8 g/ha, after 15 days, read-out: Percentage damage IPOHE
Experimental: as §1, §2

[7] = tested on: POLCO Polygonum convolvulus; assay: Post-emergence crop and weed test (Example 15); conditions: Fallopia convolvulus, 360 h, 8 g/ha, after 15 days, read-out: Percentage damage POLCO
Experimental: as §1, §2

SIDSP Sida spinosa [8] = assay: Post-emergence crop and weed test (Example 15); conditions: 360 h, 8 g/ha, after 15 days, read-out: Percentage damage SIDSP
Experimental: as §1, §2

SINAR Sinapis arvensis [9] = assay: Post-emergence crop and weed test (Example 15); conditions: Mutarda arvensis, 360 h, 8 g/ha, after 15 days, read-out: Percentage damage SINAR
Experimental: as §1, §2

VERPE Veronica persica = assay: Post-emergence crop and weed test (Example 15); conditions: 360 h, 8 g/ha, after 15 days, read-out: Percentage damage VERPE
Experimental: as §1, §2

[10] = tested on: XANST Xanthium strumarium; assay: Post-emergence crop and weed test (Example 15); conditions: 360 h, 8 g/ha, after 15 days, read-out: Percentage damage XANST
Experimental: as §1, §2

[11] = tested on: ABUTH Abutilon theophrasti; assay: Pre-emergence crop and weed test (Example 16); conditions: 15 g/ha, after 20 days
Experimental: as §1, with “1 day” for “14 days”
(§3) The test plants were then grown on under controlled conditions in a glasshouse (at 22/16° C., day/night; 16 hours light; 65% humidity) and watered twice daily. After 20 days the test was evaluated (100=total damage to plant; 0=no damage to plant).
(§4) Species as for Post-Emergence Test.

[12] = tested on: AMARE Amaranthus retroflexus; assay: Pre-emergence crop and weed test (Example 16); conditions: 15 g/ha, after 20 days
Experimental: as §1, with “1 day” for “14 days”
as §3, §4

CHEAL Chenopodium album [13] = assay: Pre-emergence crop and weed test (Example 16); conditions: 15 g/ha, after 20 days
Experimental: as §1, with “1 day” for “14 days”
as §3, §4

[14] = tested on: EPHHL Euphorbia heterophylla; assay: Pre-emergence crop and weed test (Example 16); conditions: 15 g/ha, after 20 days
Experimental: as §1, with “1 day” for “14 days”
as §3, §4

GALAP Galium aparine = assay: Pre-emergence crop and weed test (Example 16); conditions: 15 g/ha, after 20 days
Experimental: as §1, with “1 day” for “14 days”
as §3, §4

GLXMA Soybean [15] = assay: Pre-emergence crop and weed test (Example 16); conditions: 15 g/ha, after 20 days
Experimental: as §1, with “1 day” for “14 days”
as §3, §4

IPOHE Ipomoea hederacea [16] = assay: Pre-emergence crop and weed test (Example 16); conditions: 15 g/ha, after 20 days
Experimental: as §1, with “1 day” for “14 days”
as §3, §4

KCHSC Kochia scoparia = assay: Pre-emergence crop and weed test (Example 16); conditions: 15 g/ha, after 20 days
Experimental: as §1, with “1 day” for “14 days”
as §3, §4

[17] = tested on: POLCO Polygonum convolvulus; assay: Pre-emergence crop and weed test (Example 16); conditions: 15 g/ha, after 20 days
Experimental: as §1, with “1 day” for “14 days”
as §3, §4

SIDSP Sida spinosa [18] = assay: Pre-emergence crop and weed test (Example 16); conditions: 15 g/ha, after 20 days
Experimental: as §1, with “1 day” for “14 days”
as §3, §4

SINAR Sinapis arvensis [19] = assay: Pre-emergence crop and weed test (Example 16); conditions: 15 g/ha, after 20 days
Experimental: as §1, with “1 day” for “14 days”
as §3, §4

[20] = tested on: XANST Xanthium strumarium; assay: Pre-emergence crop and weed test (Example 16); conditions: 15 g/ha, after 20 days
Experimental: as §1, with “1 day” for “14 days”
as §3, §4

SMILES: COC(=O)c1nc(-c2ccc(Cl)c(OC)c2F)nc(N)c1Cl [Ref. Ex. B, 4-Amino-5-chloro-2-(4-chloro-2-fluoro-3-methoxyphenyl)-6-methoxycarbonyl-pyrimidine, reference compound]
- pest or weed control at 8 g/ha [1]: 90%
- pest or weed control at 8 g/ha [2]: 100%
- pest or weed control at 8 g/ha (CHEAL Chenopodium album [3]): 80%
- pest or weed control at 8 g/ha [4]: 100%
- plant injury at 8 g/ha (GLXMA Soybean [5]): 90%
- pest or weed control at 8 g/ha (IPOHE Ipomoea hederacea [6]): 80%
- pest or weed control at 8 g/ha [7]: 80%
- pest or weed control at 8 g/ha (SIDSP Sida spinosa [8]): 70%
- pest or weed control at 8 g/ha (SINAR Sinapis arvensis [9]): 80%
- pest or weed control at 8 g/ha (VERPE Veronica persica): 80%
- pest or weed control at 8 g/ha [10]: 100%
- Percentage damage ABUTH [11]: 30%
- Percentage damage AMARE [12]: 70%
- Percentage damage CHEAL (CHEAL Chenopodium album [13]): 30%
- Percentage damage EPHHL [14]: 80%
- Percentage damage GALAP (GALAP Galium aparine): 70%
- Percentage damage GLXMA (GLXMA Soybean [15]): 90%
- Percentage damage IPOHE (IPOHE Ipomoea hederacea [16]): 0%
- Percentage damage KCHSC (KCHSC Kochia scoparia): 0%
- Percentage damage POLCO [17]: 0%
- Percentage damage SIDSP (SIDSP Sida spinosa [18]): 40%
- Percentage damage SINAR (SINAR Sinapis arvensis [19]): 80%
- Percentage damage XANST [20]: 0%
